Experimental data from patent publication US20220251163A1 (Sinopep-Allsino Biopharmaceutical Co., Ltd., priority 2019, published 2022).
pEC50: −log10 of the molar value.

Experiments:
mGLP-1R = molecular target: T1, mGLP-1R (Mus musculus, UniProt O35659); assay: GLP-1R agonist activity, cAMP in transfected HEK293 cells; assay type: cell-based
T1 construct: expressed in transfected cells; host or cells: HEK293
T1 sequence (O35659 22-463): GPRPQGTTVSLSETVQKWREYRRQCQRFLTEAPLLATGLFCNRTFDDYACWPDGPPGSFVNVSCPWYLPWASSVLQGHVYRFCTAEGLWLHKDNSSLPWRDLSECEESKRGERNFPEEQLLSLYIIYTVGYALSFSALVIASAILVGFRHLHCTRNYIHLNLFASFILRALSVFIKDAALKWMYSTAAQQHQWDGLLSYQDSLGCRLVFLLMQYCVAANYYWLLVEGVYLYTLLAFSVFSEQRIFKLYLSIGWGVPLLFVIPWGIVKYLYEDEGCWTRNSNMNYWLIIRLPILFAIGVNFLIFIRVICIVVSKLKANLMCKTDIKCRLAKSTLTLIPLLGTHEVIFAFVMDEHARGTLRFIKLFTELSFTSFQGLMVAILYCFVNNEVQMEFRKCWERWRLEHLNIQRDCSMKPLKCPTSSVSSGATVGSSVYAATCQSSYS

[1] = Effect on random weight of ob/ob mice after single subcutaneous injection; assay type: in vivo; conditions: 100 μg/kg single s.c., X ± s, n = 7
ob/ob mice = assay: Blood glucose reducing experiment, single subcutaneous injection in ob/ob mice; assay type: in vivo; conditions: 100 μg/kg single s.c.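 Note: random blood glucose read at each time point, decrease rate given as percentage fall versus the model control group.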
Experimental: The mice in each group received random blood glucose value measurement before (0 h) administration and 2, 4, 6, 10 and 24 h after administration, and then the time for measuring the random blood glucose was adjusted and prolonged to 34, 48, 58 or 72 h after administration according to the blood glucose condition of the mice in each group. Meanwhile, the random weight of the mice in each group before (0 h) administration and 24 h after administration was weighed, and then the random weight of the mice corresponding to the random blood glucose measurement condition 48 or 72 h after administration was weighed. The blood glucose decrease rate, the blood glucose curve area (AUC0-24 h Glu) within 24 h after administration and the decrease rate were calculated according to the following formula.
Blood glucose decrease rate=(blood glucose in the model control group−blood glucose in the administration group)/blood glucose in the model control group×100%
BG0, BG2, BG4, BG6, BG10 and BG24 represented the blood glucose values before administration (0 h) and 2, 4, 6, 10 and 24 h after administration respectively.
AUC0-24 h Glu(mmol/Lh·r) decrease rate=(model control group AUC0-24 h Glu−administration group AUC0-24 h Glu/model control group AUC0-24 h Glu×100%
Experiments were carried out twice, at an interval of 8-10 days.

CC[C@H](C)[C@H](NC(=O)[C@H](CC(C)C)NC(=O)[C@H](Cc1c[nH]c2ccccc12)NC(=O)[C@H](CCC(N)=O)NC(=O)[C@@H](NC(=O)[C@H](Cc1ccccc1)NC(=O)[C@H](C)NC(=O)[C@H](CCCCNC(=O)COCCOCCNC(=O)COCCOCCNC(=O)CC[C@H](NC(=O)CCCCCCCCCCCCCCCCC(=O)O)C(=O)O)NC(=O)[C@H](CCC(N)=O)NC(=O)[C@H](C)NC(=O)[C@@H](NC(=O)[C@H](CCCCN)NC(=O)[C@H](CC(=O)O)NC(=O)[C@H](CC(C)C)NC(=O)C1(NC(=O)[C@@H](NC(=O)[C@H](CO)NC(=O)[C@H](Cc2ccc(O)cc2)NC(=O)[C@H](CC(=O)O)NC(=O)[C@H](CO)NC(=O)[C@@H](NC(=O)[C@H](Cc2ccccc2)NC(=O)[C@@H](NC(=O)CNC(=O)[C@H](CCC(=O)O)NC(=O)C2(NC(=O)[C@@H](N)Cc3ccc(O)cc3)CCC2)[C@@H](C)O)[C@@H](C)O)[C@@H](C)CC)CCC1)[C@@H](C)CC)C(C)C)C(=O)N[C@@H](C)C(=O)NCC(=O)NCC(=O)N1CCC[C@H]1C(=O)N[C@@H](CO)C(=O)N[C@@H](CO)C(=O)NCC(=O)N[C@@H](C)C(=O)N1CCC[C@H]1C(=O)N1CCC[C@H]1C(=O)N1CCC[C@H]1C(=O)N[C@@H](CO)C(N)=O [ID NO: 2]
pEC50 (mGLP-1R): 11.21

Semaglutide [reference compound]
Changes of random body weight at different time after administration, 0 h ([1]; 0 h): 0.0 ± 0.0 g
Random body weight at different time after administration, 0 h ([1]; 0 h): 43.7 ± 1.0 g
Changes of random body weight at different time after administration, 24 h ([1]; 24 h): -2.9 ± 0.2 g
Random body weight at different time after administration, 24 h ([1]; 24 h): 40.7 ± 1.0 g
Changes of random body weight at different time after administration, 48 h ([1]; 48 h): -1.9 ± 0.2 g
Random body weight at different time after administration, 48 h ([1]; 48 h): 41.7 ± 1.0 g
Blood glucose at different time after administration, 0 h (ob/ob mice; 0 h (before administration), X ± s, n = 7): 20.71 ± 1.14 mmol/L
Decrease rate of blood glucose at different time after administration, 2 h (ob/ob mice; 2 h): 56.0%
Blood glucose at different time after administration, 2 h (ob/ob mice; 2 h, X ± s, n = 7): 9.12 ± 0.84 mmol/L
Decrease rate of blood glucose at different time after administration, 4 h (ob/ob mice; 4 h): 56.7%
Blood glucose at different time after administration, 4 h (ob/ob mice; 4 h, X ± s, n = 7): 8.96 ± 1.40 mmol/L
Decrease rate of blood glucose at different time after administration, 6 h (ob/ob mice; 6 h): 59.8%
Blood glucose at different time after administration, 6 h (ob/ob mice; 6 h, X ± s, n = 7): 8.32 ± 0.88 mmol/L
Decrease rate of blood glucose at different time after administration, 10 h (ob/ob mice; 10 h): 60.0%
Blood glucose at different time after administration, 10 h (ob/ob mice; 10 h, X ± s, n = 7): 8.29 ± 0.86 mmol/L
Decrease rate of blood glucose at different time after administration, 24 h (ob/ob mice; 24 h): 59.0%
Blood glucose at different time after administration, 24 h (ob/ob mice; 24 h, X ± s, n = 7): 8.49 ± 1.12 mmol/L
Decrease rate of blood glucose at different time after administration, 34 h (ob/ob mice; 34 h): 56.0%
Blood glucose at different time after administration, 34 h (ob/ob mice; 34 h, X ± s, n = 7): 9.12 ± 0.83 mmol/L
Decrease rate of blood glucose at different time after administration, 48 h (ob/ob mice; 48 h): 13.9%
AUC0-24 h Glu (ob/ob mice; blood glucose curve area within 24 h, X ± s, n = 7): 215.87 ± 18.67 mmol·h/L
AUC0-24 h Glu Decrease rate (ob/ob mice; versus model control group): 57.7%
